Source: the NIST ThermoML archive (doi:10.1016/j.fluid.2017.05.010)
± gives the expanded uncertainty stated by the source.

Conditions: Liquid; Resistive pulse heating

Row | SMILES | Critical pressure [kPa] | Critical temperature [K]
1 | CCc1ccccn1 [2-ethylpyridine] | 3810 ± 110 | 628 ± 6
2 | CCc1ccc(C)nc1 [3-ethyl-6-methylpyridine] | 3250 ± 100 | 656 ± 7
3 | CCc1cccnc1 [3-ethylpyridine] | 4190 ± 130 | 651 ± 7
4 | CCc1ccncc1 [γ-ethylpyridine] | 4190 ± 130 | 653 ± 7
